In assay [1] the target is T1, MAGL (Mus musculus (Mouse), UniProt O35678). Nature of the assay: In vitro competitive activity-based protein profiling (mouse brain membrane fraction or cell lysates), MAGL band. Format: biochemical. To be noted: mouse proteome; for inhibition at 1 µM: read-out: MAGL % Inh 1 μM (mouse); for IC50: competitive ABPP. On the procedure:
In Vitro Competitive Activity-Based Protein Profiling.
Proteomes (mouse brain membrane fraction or cell lysates) (50 μL, 1.0 mg/mL total protein concentration) were preincubated with varying concentrations of inhibitors at 37° C. After 30 min, FP—Rh (1.0 μL, 50 μM in DMSO) was added and the mixture was incubated for another 30 min at 37° C. Reactions were quenched with SDS loading buffer (50 μL-4×) and run on SDS-PAGE.

The target of assay [2] is T2, ABHD6 (Mus musculus (Mouse), UniProt Q8R2Y0). Description: In vitro competitive activity-based protein profiling (mouse brain membrane fraction or cell lysates), ABHD6 band. The assay is classed as biochemical. To be noted: mouse proteome; for inhibition at 1 µM: read-out: ABHD6 % Inh 1 μM (mouse); for IC50: competitive ABPP. In a few lines:
(§1)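 Mouse proteome samples (brain membrane fraction or cell lysate, 1.0 mg/mL protein) were pretreated with varying inhibitor concentrations and subsequently probed with fluorophosphonate-rhodamine, each step lasting 30 min at 37° C. Labelled proteins were separated by SDS-PAGE, and band fluorescence was imaged and quantified.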

Assay [3] deals with T3, FAAH (Mus musculus (Mouse), UniProt O08914). Description: In vitro competitive activity-based protein profiling (mouse brain membrane fraction or cell lysates), FAAH band. As to conditions: mouse proteome; for inhibition at 1 µM: read-out: FAAH % Inh 1 μM (mouse); for IC50: competitive ABPP. The assay is classed as biochemical. The method, boiled down: as §1
T3 sequence (O08914 whole entry): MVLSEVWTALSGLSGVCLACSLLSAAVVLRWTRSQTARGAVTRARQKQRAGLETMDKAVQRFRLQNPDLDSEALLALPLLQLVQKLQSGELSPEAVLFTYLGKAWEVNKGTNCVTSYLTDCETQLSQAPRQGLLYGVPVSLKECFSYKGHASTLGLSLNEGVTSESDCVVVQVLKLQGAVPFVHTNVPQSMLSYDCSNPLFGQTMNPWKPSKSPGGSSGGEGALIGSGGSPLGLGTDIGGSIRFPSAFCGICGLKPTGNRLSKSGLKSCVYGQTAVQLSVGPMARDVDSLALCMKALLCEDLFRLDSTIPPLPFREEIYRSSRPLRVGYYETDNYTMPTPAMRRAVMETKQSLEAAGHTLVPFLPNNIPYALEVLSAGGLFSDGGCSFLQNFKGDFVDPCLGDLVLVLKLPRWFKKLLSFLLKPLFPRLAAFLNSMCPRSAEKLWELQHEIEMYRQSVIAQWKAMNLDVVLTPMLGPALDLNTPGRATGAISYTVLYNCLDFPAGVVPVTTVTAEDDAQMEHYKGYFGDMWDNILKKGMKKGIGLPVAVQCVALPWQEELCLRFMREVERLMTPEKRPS
Assay [4] concerns the target T1, MAGL. Description: Mouse brain proteomes from inhibitor treated mice (oral gavage, sacrificed 4 h after administration, ABPP analysis). The assay is classed as in vivo, mouse (C57Bl/6J). To be noted: 5 mg/kg oral gavage. In a few lines: (§2)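 Read-out is % inhibition at 5 mg/kg in brain proteomes profiled by activity-based protein profiling. Inhibitors were dosed orally to wild-type C57Bl/6J mice, with sacrifice at 4 h.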

Assay [5] addresses T3, FAAH. Description: Mouse brain proteomes from inhibitor treated mice (oral gavage, sacrificed 4 h after administration, ABPP analysis), FAAH. The assay is classed as in vivo, mouse (C57Bl/6J). As to conditions: 5 mg/kg oral gavage. In a few lines: as §2
Assay [6] has as its target T2, ABHD6. Description: Mouse brain proteomes from inhibitor treated mice (oral gavage, sacrificed 4 h after administration, ABPP analysis), ABHD6. Format: in vivo, mouse (C57Bl/6J). As to conditions: 5 mg/kg oral gavage. The method, boiled down: as §2

The record followed here is patent publication US10030020B2, “Spirocycle compounds and methods of making and using same” (Abide Therapeutics, Inc., priority 2016, dated 2018).

T2 sequence (Q8R2Y0 whole entry): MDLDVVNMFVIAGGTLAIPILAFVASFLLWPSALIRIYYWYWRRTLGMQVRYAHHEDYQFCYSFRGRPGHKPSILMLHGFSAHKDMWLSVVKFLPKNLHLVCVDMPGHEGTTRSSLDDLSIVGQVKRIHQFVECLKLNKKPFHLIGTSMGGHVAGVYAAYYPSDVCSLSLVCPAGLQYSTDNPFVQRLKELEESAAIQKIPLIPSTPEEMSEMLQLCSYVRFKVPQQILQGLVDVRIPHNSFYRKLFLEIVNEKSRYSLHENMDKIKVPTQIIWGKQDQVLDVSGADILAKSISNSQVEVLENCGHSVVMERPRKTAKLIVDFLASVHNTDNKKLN
T1 sequence (O35678 whole entry): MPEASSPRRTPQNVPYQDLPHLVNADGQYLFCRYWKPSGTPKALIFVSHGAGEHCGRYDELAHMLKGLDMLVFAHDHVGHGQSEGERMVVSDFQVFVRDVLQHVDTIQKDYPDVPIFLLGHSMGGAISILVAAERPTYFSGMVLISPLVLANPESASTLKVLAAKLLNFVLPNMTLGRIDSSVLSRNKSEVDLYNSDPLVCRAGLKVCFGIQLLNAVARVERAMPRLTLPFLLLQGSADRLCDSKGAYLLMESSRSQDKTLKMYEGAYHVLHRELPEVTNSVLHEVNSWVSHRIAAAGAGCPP

`O=C(OC(C(F)(F)F)C(F)(F)F)N1CCC2(CCCN2Cc2ccc(N3CCCC3)c(C(F)(F)F)c2)CC1` [Example 130, 1,1,1,3,3,3-Hexafluoropropan-2-yl 1-(4-(pyrrolidin-1-yl)-3-(trifluoromethyl)benzyl)-1,8-diazaspiro[4.5]decane-8-carboxylate]: the figures for the inhibition at 1 µM at MAGL [1], at ABHD6 [2] and at FAAH [3] were over 75%, 25 to 75% and under 25%, respectively. Moreover, the 50% inhibitory concentration (IC50) (as a rule, the point on the concentration scale where inhibition reaches its midpoint) at MAGL [1] was under 100 nM; on ABHD6 [2] it was over 1000 nM; at FAAH [3], over 1000 nM. Also, at MAGL [4], the “MAGL % Inh 5 mg/kg (mouse)” value is listed as “### (### is ≥75%)”. For the same compound, on FAAH [5], the “FAAH % Inh 5 mg/kg (mouse)” value is “# (# is <25%)”. On ABHD6 [6], the “ABHD6 % Inh 5 mg/kg (mouse)” value is recorded as “# (# is <25%)”.
As for `O=C(OC(C(F)(F)F)C(F)(F)F)N1CCC2(CCCN2Cc2ccc(Cl)c(N3CCCC3)c2)CC1` [Example 132, 1,1,1,3,3,3-Hexafluoropropan-2-yl 1-(4-chloro-3-(pyrrolidin-1-yl)benzyl)-1,8-diazaspiro[4.5]decane-8-carboxylate], the inhibition at 1 µM at MAGL [1] is over 75%; on ABHD6 [2], under 25%; on FAAH [3], under 25%. Also, the IC50 is under 100 nM at MAGL [1], over 1000 nM at ABHD6 [2] and over 1000 nM on FAAH [3]. For the same compound, the “MAGL % Inh 5 mg/kg (mouse)” value on MAGL [4] is “### (### is ≥75%)”. Besides, the “FAAH % Inh 5 mg/kg (mouse)” value on FAAH [5] was “# (# is <25%)”. Besides, on ABHD6 [6], the “ABHD6 % Inh 5 mg/kg (mouse)” value is “# (# is <25%)”.
Consider `CS(=O)(=O)N1CCc2cccc(CN3CCCC34CCN(C(=O)OC(C(F)(F)F)C(F)(F)F)CC4)c2C1` [Example 146, 1,1,1,3,3,3-Hexafluoropropan-2-yl 1-((2-methanesulfonyl-1,2,3,4-tetrahydroisoquinolin-8-yl)methyl)-1,8-diazaspiro[4.5]decane-8-carboxylate], for which the figures for the inhibition at 1 µM at MAGL [1], at ABHD6 [2] and on FAAH [3] were over 75%, 25 to 75% and under 25%, respectively. For the same compound, the values for the IC50 on MAGL [1], at ABHD6 [2] and at FAAH [3] were under 100 nM, over 1000 nM and over 1000 nM, respectively. Moreover, the “MAGL % Inh 5 mg/kg (mouse)” value on MAGL [4] is recorded as “### (### is ≥75%)”. The “FAAH % Inh 5 mg/kg (mouse)” value on FAAH [5] was “# (# is <25%)”. Moreover, at ABHD6 [6], the “ABHD6 % Inh 5 mg/kg (mouse)” value is recorded as “## (## is equal to or greater than 25% but less than 75%)”.
As to `CCc1cc(CN2CCCC23CCN(C(=O)OC(C(F)(F)F)C(F)(F)F)CC3)ccc1F` [Example 150, 1,1,1,3,3,3-Hexafluoropropan-2-yl 1-(3-ethyl-4-fluorobenzyl)-1,8-diazaspiro[4.5]decane-8-carboxylate], the inhibition at 1 µM at MAGL [1] is over 75%; on ABHD6 [2], under 25%; on FAAH [3], under 25%. For the same compound, the IC50 was under 100 nM on MAGL [1], over 1000 nM on ABHD6 [2] and over 1000 nM at FAAH [3]. Besides, at MAGL [4], the “MAGL % Inh 5 mg/kg (mouse)” value is given as “### (### is ≥75%)”. In addition, the “FAAH % Inh 5 mg/kg (mouse)” value on FAAH [5] is on record as “# (# is <25%)”. In addition, the “ABHD6 % Inh 5 mg/kg (mouse)” value on ABHD6 [6] is reported as “# (# is <25%)”.
On to `O=C(OC(C(F)(F)F)C(F)(F)F)N1CCC2(CCCN2Cc2ccc3c(c2)COC3)CC1` [Example 151, 1,1,1,3,3,3-Hexafluoropropan-2-yl 1-((1,3-dihydroisobenzofuran-5-yl)methyl)-1,8-diazaspiro[4.5]decane-8-carboxylate], for which the results for the inhibition at 1 µM on MAGL [1], at ABHD6 [2] and at FAAH [3] were over 75%, under 25% and under 25%, respectively. Further, the IC50 was under 100 nM on MAGL [1], over 1000 nM on ABHD6 [2] and over 1000 nM at FAAH [3]. Besides, the “MAGL % Inh 5 mg/kg (mouse)” value on MAGL [4] is “### (### is ≥75%)”. Moreover, at FAAH [5], the “FAAH % Inh 5 mg/kg (mouse)” value was “## (## is equal to or greater than 25% but less than 75%)”. The “ABHD6 % Inh 5 mg/kg (mouse)” value on ABHD6 [6] is listed as “## (## is equal to or greater than 25% but less than 75%)”.
For the compound `CCc1cc(CN2CCC3(CCN(C(=O)OC(C(F)(F)F)C(F)(F)F)CC3)C2)ccc1F` [Example 152, 1,1,1,3,3,3-Hexafluoropropan-2-yl 2-(3-ethyl-4-fluorobenzyl)-2,8-diazaspiro[4.5]decane-8-carboxylate], the inhibition at 1 µM at MAGL [1] was over 75%; at ABHD6 [2], at least 75%; on FAAH [3], under 25%. Moreover, the IC50 on MAGL [1] is under 100 nM; on ABHD6 [2], 100 to 1000 nM; on FAAH [3], over 1000 nM. At MAGL [4], the “MAGL % Inh 5 mg/kg (mouse)” value was “### (### is ≥75%)”. For the same compound, the “FAAH % Inh 5 mg/kg (mouse)” value on FAAH [5] is listed as “# (# is <25%)”. Moreover, the “ABHD6 % Inh 5 mg/kg (mouse)” value on ABHD6 [6] is given as “### (### is ≥75%)”.
Consider `O=C(OC(C(F)(F)F)C(F)(F)F)N1CCC2(CCN(Cc3ccc(C(F)(F)F)c(N4CCCC4)c3)C2)CC1` [Example 157, 1,1,1,3,3,3-Hexafluoropropan-2-yl 2-(3-(pyrrolidin-1-yl)-4-(trifluoromethyl)benzyl)-2,8-diazaspiro[4.5]decane-8-carboxylate], for which the inhibition at 1 µM on MAGL [1] was over 75%; on ABHD6 [2] it was at least 75%; at FAAH [3], under 25%. Besides, the half-maximal inhibitory concentration (IC50) at MAGL [1] was under 100 nM; at ABHD6 [2], 100 to 1000 nM; on FAAH [3] it was over 1000 nM. Moreover, the “MAGL % Inh 5 mg/kg (mouse)” value on MAGL [4] is given as “### (### is ≥75%)”. Moreover, the “FAAH % Inh 5 mg/kg (mouse)” value on FAAH [5] was “# (# is <25%)”. For the same compound, on ABHD6 [6], the “ABHD6 % Inh 5 mg/kg (mouse)” value is reported as “## (## is equal to or greater than 25% but less than 75%)”.
As for `CN1CCC(Oc2cc(CN3CCCC34CCN(C(=O)OC(C(F)(F)F)C(F)(F)F)CC4)cc(C(F)(F)F)c2)CC1` [Example 166, 1,1,1,3,3,3-Hexafluoropropan-2-yl 1-(3-(1-methylpiperidin-4-yloxy)-5-(trifluoromethyl)benzyl)-1,8-diazaspiro[4.5]decane-8-carboxylate], the inhibition at 1 µM on MAGL [1] was over 75%; on ABHD6 [2], under 25%; at FAAH [3], under 25%. Besides, the half-maximal inhibitory concentration (IC50) was under 100 nM on MAGL [1], over 1000 nM on ABHD6 [2] and over 1000 nM at FAAH [3]. Further, the “MAGL % Inh 5 mg/kg (mouse)” value on MAGL [4] is on record as “# (# is <25%)”. The “FAAH % Inh 5 mg/kg (mouse)” value at FAAH [5] is given as “# (# is <25%)”. Besides, the “ABHD6 % Inh 5 mg/kg (mouse)” value on ABHD6 [6] was “# (# is <25%)”.
For `O=C(COc1cc(CN2CCCC23CCN(C(=O)OC(C(F)(F)F)C(F)(F)F)CC3)cc(C(F)(F)F)c1)N1CCCC1` [Example 168, 1,1,1,3,3,3-Hexafluoropropan-2-yl 1-(3-(2-oxo-2-(pyrrolidin-1-yl)ethoxy)-5-(trifluoromethyl)benzyl)-1,8-diazaspiro[4.5]decane-8-carboxylate], the inhibition at 1 µM at MAGL [1] was over 75%; on ABHD6 [2], under 25%; on FAAH [3], under 25%. Also, the IC50 was under 100 nM at MAGL [1], over 1000 nM at ABHD6 [2] and over 1000 nM on FAAH [3]. The “MAGL % Inh 5 mg/kg (mouse)” value at MAGL [4] is on record as “## (## is equal to or greater than 25% but less than 75%)”. Moreover, the “FAAH % Inh 5 mg/kg (mouse)” value at FAAH [5] is “# (# is <25%)”. Further, at ABHD6 [6], the “ABHD6 % Inh 5 mg/kg (mouse)” value is “# (# is <25%)”.
Turning to `O=C(OC(C(F)(F)F)C(F)(F)F)N1CCC2(CCCN2Cc2cc(OC3CCOCC3)cc(C(F)(F)F)c2)CC1` [Example 170, 1,1,1,3,3,3-Hexafluoropropan-2-yl 1-(3-(tetrahydro-2H-pyran-4-yloxy)-5-(trifluoromethyl)benzyl)-1,8-diazaspiro[4.5]decane-8-carboxylate], the inhibition at 1 µM on MAGL [1] was over 75%; at ABHD6 [2] it was under 25%; at FAAH [3] it was under 25%. The results for the IC50 at MAGL [1], on ABHD6 [2] and at FAAH [3] were under 100 nM, over 1000 nM and over 1000 nM, respectively. The “MAGL % Inh 5 mg/kg (mouse)” value at MAGL [4] is reported as “## (## is equal to or greater than 25% but less than 75%)”. Further, the “FAAH % Inh 5 mg/kg (mouse)” value at FAAH [5] is “# (# is <25%)”. Besides, the “ABHD6 % Inh 5 mg/kg (mouse)” value at ABHD6 [6] was “# (# is <25%)”.
With `O=C(OC(C(F)(F)F)C(F)(F)F)N1CCC2(CCCN2Cc2cc(Oc3nc4ccccc4s3)cc(C(F)(F)F)c2)CC1` [Example 172, 1,1,1,3,3,3-Hexafluoropropan-2-yl 1-(3-(benzo[d]thiazol-2-yloxy)-5-(trifluoromethyl)benzyl)-1,8-diazaspiro[4.5]decane-8-carboxylate], the inhibition at 1 µM at MAGL [1] is over 75%; at ABHD6 [2], under 25%; on FAAH [3] it was under 25%. Further, the figures for the concentration for half-maximal inhibition (IC50) on MAGL [1], at ABHD6 [2] and on FAAH [3] were under 100 nM, over 1000 nM and over 1000 nM, respectively. For the same compound, the “MAGL % Inh 5 mg/kg (mouse)” value on MAGL [4] is reported as “# (# is <25%)”. For the same compound, the “FAAH % Inh 5 mg/kg (mouse)” value on FAAH [5] is “# (# is <25%)”. For the same compound, at ABHD6 [6], the “ABHD6 % Inh 5 mg/kg (mouse)” value is “# (# is <25%)”.
